Results from US12384808B2, “Modulators of TNF-α activity” (Forward Therapeutics, Inc., priority 2022, dated 2025).

These compounds were tested against TNFα (Homo sapiens, UniProt P01375) (assay: TNFα Induced HEK Blue Cellular Assay). Settings: not given.
Sequence of TNFα (P01375 77-233 limits assumed): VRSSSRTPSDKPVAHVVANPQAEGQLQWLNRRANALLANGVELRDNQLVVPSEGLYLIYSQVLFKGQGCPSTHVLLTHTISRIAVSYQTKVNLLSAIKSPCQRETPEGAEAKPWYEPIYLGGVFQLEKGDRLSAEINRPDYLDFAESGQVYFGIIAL
Format: cell-based
Experimental: TNFα Induced HEK Blue Cellular Assay
Test articles were diluted in DMSO and serially diluted into 384 well assay plate (Corning 3765), at final concentrations ranging from […] to 0.5 nM. HEK Blue™ TNFα reporter cells were added at a final density of 10,000 cell per well in assay media [DMEM (Gibco, cat #21063-029), 10% fetal bovine serum (ExcelBio, cat #FND500), 1% Penicillin-Streptomycin (Solarbio, cat #P1400-100]. TNFα (R&D 210-TA-020/CF) was then added to the assay plate at a final concentration of 100 pg/ml. This plate was then incubated for 24 hrs at 37° C. and 5% CO2. Secreted alkaline phosphatase expression was then measured using QUANTI-Blue™ (Invivogen), according to manufacturer instructions and read on an Envision microplate reader at 620 nm.
Inhibition data for test compound over a range of concentration was plotted as percentage inhibition of the test compound (100%=maximum inhibition). IC50 values were determined after correcting for background [(sample read−mean of low control)/(mean of high control−mean of low control)] where by the low control is DMSO without stimulation and high control is DMSO with stimulation. The IC50 is defined as the concentration of test compound which produces 50% inhibition and was quantified using the 4 parameter logistic equation to fit the data.
Compound [2H]C([2H])([2H])N1C(=O)c2cccc(OC(F)F)c2[C@H]2C[C@@H]1c1nc3ccc(-c4ccc(CP(=O)(OC)OC)cc4)cc3n12 [Example 83, dimethyl (4-((7R,14R)-1-(difluoromethoxy)-6-(methyl-d3)-5-oxo-5,6,7,14-tetrahydro-7,14-methanobenzo[f]benzo[4,5]imidazo[1,2-a][1,4]diazocin-11-yl)benzyl)phosphonate] has an IC50 of less than 0.1 µM.

Same assay, conditions: HEK Blue TNFα reporter cells, TNFα 100 pg/ml, 24 hrs at 37° C., secreted alkaline phosphatase (QUANTI-Blue) read at 620 nm; read-out: IC50 value
Work on [2H]C([2H])([2H])N1C(=O)c2cccc(OC(F)F)c2[C@H]2C[C@@H]1c1nc3ccc(-c4cc(F)c(P(C)(C)=O)c(F)c4)cc3n12 [Example 60, (7R,14R)-1-(difluoromethoxy)-11-(4-(dimethylphosphoryl)-3,5-difluorophenyl)-6-(methyl-d3)-6,7-dihydro-7,14-methanobenzo[f]benzo[4,5]imidazo[1,2-a][1,4]diazocin-5(14H)-one] yielded an IC50 of less than 0.1 µM.
For [2H]C([2H])([2H])N1C(=O)c2cccc(OC(F)F)c2[C@H]2C[C@@H]1c1nc3ccc(-c4cc(N)c(P(C)(C)=O)c(F)c4)cc3n12 [Example 131, (7R,14R)-11-(3-amino-4-(dimethylphosphoryl)-5-fluorophenyl)-1-(difluoromethoxy)-6-(methyl-d3)-6,7-dihydro-7,14-methanobenzo[f]benzo[4,5]imidazo[1,2-a][1,4]diazocin-5(14H)-one], the IC50 was 10 to 30 µM.
For CP(C)(=O)c1ccc(-c2ccc3nc4n(c3c2)[C@@H]2C[C@H]4N(C3CC3)C(=O)c3cccc(OC(F)F)c32)cc1F [Example 48, (1R,11R)-12-cyclopropyl-18-(difluoromethoxy)-5-[4-(dimethylphosphoryl)-3-fluorophenyl]-2,9,12-triazapentacyclo[9.8.1.0^{2,10}.0^{3,8}.0^{14,19}]icosa-3(8),4,6,9,14(19),15,17-heptaen-13-one], the IC50 was less than 0.1 µM.
With [2H]C([2H])([2H])N1C(=O)c2cccc(OC(F)F)c2[C@H]2C[C@@H]1c1nc3cc(F)c(-c4ccc(CP(C)(C)=O)c(F)c4)cc3n12 [Example 78, (7R,14R)-1-(difluoromethoxy)-11-(4-((dimethylphosphoryl)methyl)-3-fluorophenyl)-10-fluoro-6-(methyl-d3)-6,7-dihydro-7,14-methanobenzo[f]benzo[4,5]imidazo[1,2-a][1,4]diazocin-5(14H)-one] the IC50 was less than 0.1 µM.
Compound Cc1cc(P(C)(C)=O)ccc1-c1ccc2nc3n(c2c1)[C@@H]1C[C@H]3NC(=O)c2cccc(OC(F)F)c21 [Example 32, (1R,11R)-18-(difluoromethoxy)-5-[4-(dimethylphosphoryl)-2-methylphenyl]-2,9,12-triazapentacyclo[9.8.1.0^{2,10}.0^{3,8}.0^{14,19}]icosa-3(8),4,6,9,14(19),15,17-heptaen-13-one] has an IC50 of less than 0.1 µM.
For [2H]C([2H])([2H])N1C(=O)c2cccc(OC(F)F)c2[C@H]2C[C@@H]1c1nc3ccc(-c4cc(F)c(P(C)(C)=O)cc4F)nc3n12 [Example 142, (7R,14R)-1-(difluoromethoxy)-11-(4-(dimethylphosphoryl)-2,5-difluorophenyl)-6-(methyl-d3)-6,7-dihydro-7,14-methanobenzo[f]pyrido[3′,2′:4,5]imidazo[1,2-a][1,4]diazocin-5(14H)-one], the IC50 was less than 0.1 µM.
[2H]C([2H])([2H])N1C(=O)c2cccc(OC(F)F)c2[C@H]2C[C@@H]1c1nc3ccc(-c4ccc(C(C)P(C)(C)=O)nc4)cc3n12 (stereo partly drawn) [Example 116, (7R,14R)-1-(difluoromethoxy)-11-(6-(1-(dimethylphosphoryl)ethyl)pyridin-3-yl)-6-(methyl-d3)-6,7-dihydro-7,14-methanobenzo[f]benzo[4,5]imidazo[1,2-a][1,4]diazocin-5(14H)-one] gave an IC50 of less than 0.1 µM.
CN1C(=O)c2cccc(OC(F)F)c2[C@H]2C[C@@H]1c1nc3ccc(-c4cnc(P(C)(C)=O)nc4)cc3n12 [Example 8, (1R,11R)-18-(difluoromethoxy)-5-[2-(dimethylphosphoryl)pyrimidin-5-yl]-12-methyl-2,9,12-triazapentacyclo[9.8.1.0^{2,10}.0^{3,8}.0^{14,19}]icosa-3(8),4,6,9,14(19),15,17-heptaen-13-one] was tested, and the IC50 was 0.1 to 1 µM.
[2H]C([2H])([2H])N1C(=O)c2cccc(OC(F)F)c2[C@H]2C[C@@H]1c1nc3ccc(-c4ccc(P(C)(C)=O)c(F)c4F)cc3n12 [Example 52, (7R,14R)-1-(difluoromethoxy)-11-(4-(dimethylphosphoryl)-2,3-difluorophenyl)-6-(methyl-d3)-6,7-dihydro-7,14-methanobenzo[f]benzo[4,5]imidazo[1,2-a][1,4]diazocin-5(14H)-one] showed an IC50 of less than 0.1 µM.
With [2H]C([2H])([2H])N1C(=O)c2cccc(OC(F)F)c2[C@H]2C[C@@H]1c1nc3ccc(-c4cc(C)c(P(C)(C)=O)c(F)n4)cc3n12 [Example 132, (7R,14R)-1-(difluoromethoxy)-11-(5-(dimethylphosphoryl)-6-fluoro-4-methylpyridin-2-yl)-6-(methyl-d3)-6,7-dihydro-7,14-methanobenzo[f]benzo[4,5]imidazo[1,2-a][1,4]diazocin-5(14H)-one] the IC50 was less than 0.1 µM.
In the case of [2H]C([2H])([2H])N1C(=O)c2cccc(OC(F)F)c2[C@H]2C[C@@H]1c1nc3ccc(-c4cnc(P(=O)(CC)CC)c(F)c4)cc3n12 [Example 127, (7R,14R)-11-(6-(diethylphosphoryl)-5-fluoropyridin-3-yl)-1-(difluoromethoxy)-6-(methyl-d3)-6,7-dihydro-7,14-methanobenzo[f]benzo[4,5]imidazo[1,2-a][1,4]diazocin-5(14H)-one], the IC50 is reported as less than 0.1 µM.
[2H]C([2H])([2H])N1C(=O)c2cccc(OC(F)F)c2[C@H]2C[C@@H]1c1nc3ccc(-c4cnc(P(C)(C)=O)cc4C)cc3n12 [Example 87, (7R,14R)-1-(difluoromethoxy)-11-(6-(dimethylphosphoryl)-4-methylpyridin-3-yl)-6-(methyl-d3)-6,7-dihydro-7,14-methanobenzo[f]benzo[4,5]imidazo[1,2-a][1,4]diazocin-5(14H)-one] gave an IC50 of 0.1 to 1 µM.
In the case of CP(C)(=O)Cc1ccc(-c2ccc3nc4n(c3c2)[C@@H]2C[C@H]4NC(=O)c3cccc(OC(F)F)c32)cc1F [Example 72, (7R,14R)-1-(difluoromethoxy)-11-(4-((dimethylphosphoryl)methyl)-3-fluorophenyl)-6,7-dihydro-7,14-methanobenzo[f]benzo[4,5]imidazo[1,2-a][1,4]diazocin-5(14H)-one], the IC50 is reported as less than 0.1 µM.
Compound CP(C)(=O)c1ccc(-c2ccc3nc4n(c3c2)[C@@H]2C[C@H]4N(C3CC3)C(=O)c3cccc(OC(F)F)c32)cn1 [Example 47, (1R,11R)-12-cyclopropyl-18-(difluoromethoxy)-5-[6-(dimethylphosphoryl)pyridin-3-yl]-2,9,12-triazapentacyclo[9.8.1.0^{2,10}.0^{3,8}.0^{14,19}]icosa-3(8),4,6,9,14(19),15,17-heptaen-13-one] has an IC50 of less than 0.1 µM.
With CN1C(=O)c2cccc(OC(F)F)c2[C@H]2C[C@@H]1c1nc3ccc(-c4ccc(CP(C)(C)=O)nc4)cc3n12 [Example 22, (1R,11R)-18-(difluoromethoxy)-5-{6-[(dimethylphosphoryl)methyl]pyridin-3-yl}-12-methyl-2,9,12-triazapentacyclo[9.8.1.0^{2,10}.0^{3,8}.0^{14,19}]icosa-3(8),4,6,9,14(19),15,17-heptaen-13-one] the IC50 was less than 0.1 µM.
In the case of [2H]C([2H])([2H])N1C(=O)c2cccc(OC(F)F)c2[C@H]2C[C@@H]1c1nc3ccc(-c4ccc(C(C)(O)P(C)(C)=O)cc4)cc3n12 (single isomer, unassigned) [Example 110, (7R,14R)-1-(difluoromethoxy)-11-(4-((S or R)-1-(dimethylphosphoryl)-1-hydroxyethyl)phenyl)-6-(methyl-d3)-6,7-dihydro-7,14-methanobenzo[f]benzo[4,5]imidazo[1,2-a][1,4]diazocin-5(14H)-one], the IC50 is reported as less than 0.1 µM.
[2H]C([2H])([2H])N1C(=O)c2cccc(OC(F)F)c2[C@H]2C[C@@H]1c1nc3ccc(-c4ccc(CP(C)(C)=O)cc4F)cc3n12 [Example 67, (7R,14R)-1-(difluoromethoxy)-11-(4-((dimethylphosphoryl)methyl)-2-fluorophenyl)-6-(methyl-d3)-6,7-dihydro-7,14-methanobenzo[f]benzo[4,5]imidazo[1,2-a][1,4]diazocin-5(14H)-one] showed an IC50 of less than 0.1 µM.
CP(C)(=O)c1ccc(-c2ccc3nc4n(c3c2)[C@@H]2C[C@H]4NC(=O)c3cccc(OC(F)F)c32)c(F)c1F [Example 34, (1R,11R)-18-(difluoromethoxy)-5-[4-(dimethylphosphoryl)-2,3-difluorophenyl]-2,9,12-triazapentacyclo[9.8.1.0^{2,10}.0^{3,8}.0^{14,19}]icosa-3(8),4,6,9,14(19),15,17-heptaen-13-one] showed an IC50 of less than 0.1 µM.
With [2H]C([2H])([2H])N1C(=O)c2cccc(OC(F)F)c2[C@H]2C[C@@H]1c1nc3ccc(-c4ccc(P(C)(C)=O)nc4Cl)cc3n12 [Example 94, (7R,14R)-11-(2-chloro-6-(dimethylphosphoryl)pyridin-3-yl)-1-(difluoromethoxy)-6-(methyl-d3)-6,7-dihydro-7,14-methanobenzo[f]benzo[4,5]imidazo[1,2-a][1,4]diazocin-5(14H)-one] the IC50 was less than 0.1 µM.
